Values joined by “and” are separate entries in the source; they are usually repeats but may differ in a detail not shown here. Equal values may be shown once. Read-outs that look alike come from different tables or passages of the source.
Legend:
NF-κB = experiment: NFkB-luc reporter in HEK293 cells with empty vector control; type: cell-based, human; conditions: luciferase signal; for fold induction at 10 µM: Homo sapiens, HEK293, 16 h, read-out: Fold Increase Over DMSO Control, HEK 293 Vector; for Fold Increase Over DMSO Control, HEK 293 Vector: 10 μM, 16 hours
Description: (§1) HEK 293 cells were cultured in Minimum Essential Medium (MEM) with 2 mM L-glutamine and Earle's Balanced Salt Solution (Invitrogen Corp., Rockville, Md.) adjusted to contain 1.5 g/L sodium bicarbonate, 0.1 mM non-essential amino acids, and 1.0 mM sodium pyruvate, 90%; heat-inactivated fetal calf serum, 10%. The cells were incubated at 37° C., 8% CO2.
(§2) The cells were co-transfected with human TLR7 or Empty Vector control pIRES (BD Biosciences Clontech, Palo Alto, Calif.) along with NFkB-luc reporter (Stratagene, La Jolla, Calif.) in a 10:1 ratio with Fugene 6 transfection reagent (Roche Diagnostics Corp., Indianapolis, Ind.) following the manufacturer's instructions.
(§3) The cells were stimulated with 1 μL of IRM compounds at 1 mM in DMSO (final concentration of 10 μM) or 1 μL DMSO as a control. The plates were then incubated an additional 16 hours at 37° C., 5% CO2. The luciferase signal was read using the LucLite kit (Packard Instrument Co., Meriden, Conn.). The luminescence was measured on the Topcount NXT (Packard Instrument Co., Meriden, Conn.).

human TLR7 = molecular target: T1, human TLR7 (Homo sapiens, UniProt Q9NYK1); experiment: NFkB-luc reporter in HEK293 cells transfected with human TLR7; type: cell-based
T1 construct: expressed in transfected cells; host or cells: HEK293 (pIRES, G-418 selected)
T1 sequence (Q9NYK1 27-1049): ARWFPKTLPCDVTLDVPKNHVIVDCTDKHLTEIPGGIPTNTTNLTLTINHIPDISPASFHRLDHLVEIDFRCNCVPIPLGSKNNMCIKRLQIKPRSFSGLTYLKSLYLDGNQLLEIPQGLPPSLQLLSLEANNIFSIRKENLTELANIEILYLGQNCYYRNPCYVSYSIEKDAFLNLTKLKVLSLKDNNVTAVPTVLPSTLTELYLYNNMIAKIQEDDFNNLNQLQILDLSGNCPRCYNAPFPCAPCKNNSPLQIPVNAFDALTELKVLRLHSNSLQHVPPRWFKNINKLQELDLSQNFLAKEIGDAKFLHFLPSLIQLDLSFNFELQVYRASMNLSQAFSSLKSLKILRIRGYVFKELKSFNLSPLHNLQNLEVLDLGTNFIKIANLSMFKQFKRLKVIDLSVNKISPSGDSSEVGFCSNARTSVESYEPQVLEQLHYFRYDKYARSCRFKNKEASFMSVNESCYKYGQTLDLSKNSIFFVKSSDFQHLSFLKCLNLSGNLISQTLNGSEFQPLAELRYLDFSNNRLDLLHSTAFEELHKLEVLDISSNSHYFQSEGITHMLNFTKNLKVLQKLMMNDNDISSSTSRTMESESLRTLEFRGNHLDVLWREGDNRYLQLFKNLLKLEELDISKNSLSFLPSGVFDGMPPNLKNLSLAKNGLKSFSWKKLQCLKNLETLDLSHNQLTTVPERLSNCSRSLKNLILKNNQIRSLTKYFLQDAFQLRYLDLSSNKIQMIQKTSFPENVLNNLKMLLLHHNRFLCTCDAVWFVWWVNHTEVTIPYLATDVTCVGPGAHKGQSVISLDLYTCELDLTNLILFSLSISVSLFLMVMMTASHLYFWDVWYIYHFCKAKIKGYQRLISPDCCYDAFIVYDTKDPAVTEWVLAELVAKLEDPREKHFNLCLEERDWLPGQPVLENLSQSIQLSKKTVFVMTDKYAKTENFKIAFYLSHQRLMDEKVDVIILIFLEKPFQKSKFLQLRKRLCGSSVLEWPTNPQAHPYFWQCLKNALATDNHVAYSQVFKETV
Description: as §1, §2, §3

TLR6 = molecular target: T2, TLR6 (Homo sapiens, UniProt Q9Y2C9); experiment: Anti-TLR6 antibody inhibition of TNF-α production by human PBMC; type: cell-based; conditions: preincubation with anti-TLR6 antibodies; compared with LPS
T2 construct: Peripheral blood mononuclear cells (PBMCS) were isolated; endogenous in cells; host or cells: human PBMC from healthy volunteers
T2 sequence (Q9Y2C9 32-796): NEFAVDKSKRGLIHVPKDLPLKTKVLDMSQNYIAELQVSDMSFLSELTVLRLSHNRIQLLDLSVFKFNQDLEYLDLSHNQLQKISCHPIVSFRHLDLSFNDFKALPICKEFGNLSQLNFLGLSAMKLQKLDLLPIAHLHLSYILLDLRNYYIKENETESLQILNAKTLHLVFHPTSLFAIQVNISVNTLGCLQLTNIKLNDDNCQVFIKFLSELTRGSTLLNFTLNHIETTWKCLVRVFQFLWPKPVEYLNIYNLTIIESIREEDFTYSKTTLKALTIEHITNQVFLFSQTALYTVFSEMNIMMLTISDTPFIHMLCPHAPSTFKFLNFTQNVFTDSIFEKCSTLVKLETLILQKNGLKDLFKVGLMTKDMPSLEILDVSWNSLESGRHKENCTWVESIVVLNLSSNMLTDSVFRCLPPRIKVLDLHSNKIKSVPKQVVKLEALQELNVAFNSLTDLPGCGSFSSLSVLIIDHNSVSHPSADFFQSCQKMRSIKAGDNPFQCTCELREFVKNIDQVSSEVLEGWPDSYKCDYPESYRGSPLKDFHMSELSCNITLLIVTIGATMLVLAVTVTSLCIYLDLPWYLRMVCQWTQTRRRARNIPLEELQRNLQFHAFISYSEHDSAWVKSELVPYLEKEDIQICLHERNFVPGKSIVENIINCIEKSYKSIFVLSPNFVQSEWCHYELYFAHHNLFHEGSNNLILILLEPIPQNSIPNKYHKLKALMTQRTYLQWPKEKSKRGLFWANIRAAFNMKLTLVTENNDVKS
T2 sequence (O60603 21-784 partner): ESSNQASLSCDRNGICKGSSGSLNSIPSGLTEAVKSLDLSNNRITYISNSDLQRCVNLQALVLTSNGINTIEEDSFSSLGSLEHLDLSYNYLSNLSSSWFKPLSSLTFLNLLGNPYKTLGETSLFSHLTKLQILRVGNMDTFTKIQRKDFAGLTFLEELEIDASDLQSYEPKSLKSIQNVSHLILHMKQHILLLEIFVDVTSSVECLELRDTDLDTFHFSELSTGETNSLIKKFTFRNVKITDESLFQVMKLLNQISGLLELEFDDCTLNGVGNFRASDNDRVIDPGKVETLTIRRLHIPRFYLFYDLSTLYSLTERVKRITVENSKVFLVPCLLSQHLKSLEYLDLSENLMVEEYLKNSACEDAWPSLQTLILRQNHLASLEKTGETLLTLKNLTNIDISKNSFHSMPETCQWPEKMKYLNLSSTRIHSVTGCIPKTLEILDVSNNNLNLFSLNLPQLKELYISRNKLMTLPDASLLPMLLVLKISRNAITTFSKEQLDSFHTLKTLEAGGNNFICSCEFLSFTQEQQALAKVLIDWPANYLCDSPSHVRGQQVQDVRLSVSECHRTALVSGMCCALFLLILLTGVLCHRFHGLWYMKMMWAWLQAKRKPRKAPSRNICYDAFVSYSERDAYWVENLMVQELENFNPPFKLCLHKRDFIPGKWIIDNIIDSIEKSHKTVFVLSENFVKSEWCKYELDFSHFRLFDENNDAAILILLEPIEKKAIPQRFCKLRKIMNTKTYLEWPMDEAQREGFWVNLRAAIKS
Description: Peripheral blood mononuclear cells (PBMCS) were isolated with the Histopaque HybriMax—1077 density gradient (Sigma Chemical Co., St. Louis, Mo.) from healthy human volunteers after obtaining informed consent.
PBMC were resuspended in cRPMI at a concentration of 10^6 cells/ml. 100 μl of cells (10^5 cells) were then added to individual wells of a 96 well U-bottom plate (BD Biosciences Discovery Labware, Bedford, Mass.). Solutions containing cRPMI with 40 μg/ml of the affinity purified anti-TLR6 polyclonal antibody were prepared. 50 μl of the antibody solution was added to cells and incubated for 30 minutes. […] Cells were incubated for 18 hours at 37° C. in an atmosphere of 5% CO2/95% air. Supernatants were collected and frozen at −20° C. for cytokine analysis. The data are presented as % inhibition relative to control.
Data shown are representative of six independent experiments.

[1] = luciferase signal, 10 μM, 16 hours, TLR7 cells

| Compound | fold induction at 10 µM (NF-κB) | Fold Increase Over DMSO Control, HEK293 TLR7 (human TLR7; [1]) | Fold Increase Over DMSO Control, HEK 293 Vector (NF-κB) [fold] | Fold Increase Over DMSO Control, HEK293 TLR7 (human TLR7) [fold] | Effect of anti-TLR6 antibodies on stimulus-induced TNF-α production (in words) (TLR6) |
| --- | --- | --- | --- | --- | --- |
| Cc1nc2c(N)nc3ccccc3c2n1CC(C)(C)O.Cl [IRM 1, 4-amino-α,α,2-trimethyl-1H-imidazo[4,5-c]quinoline-1-ethanol hydrochloride] | 0.86 | 3.75 fold |  |  |  |
| Nc1nc2ccccc2c2c1ncn2CCOCCCc1cccnc1 [IRM 4, 1-{2-[3-(3-pyridyl)propoxy]ethyl}-1H-imidazo[4,5-c]quinolin-4-amine] | 1 | 4.06 fold |  |  |  |
| CCCCc1nc2c(N)nc3ncccc3c2n1CC(C)C [IRM 5, 2-butyl-1-(2-methylpropyl)-1H-imidazo[4,5-c][1,8]naphthyridin-4-amine] | 1.21 | 1.13 fold |  |  |  |
| CCCCc1nc2c(N)nc3cnccc3c2n1CC(C)C [IRM 6, 2-butyl-1-(2-methylpropyl)-1H-imidazo[4,5-c][1,7]naphthyridin-4-amine] | 0.95 | 1.25 fold |  |  |  |
| CCCCc1nc2c(N)nc3cccnc3c2n1CC(C)C [IRM 7, 2-butyl-1-(2-methylpropyl)-1H-imidazo[4,5-c][1,5]naphthyridin-4-amine] | 1.3 | 3.06 fold |  |  |  |
| CCCCc1nc2c(N)nc3c(c2n1CC(C)C)NCCC3 [IRM 8, 2-butyl-6,7,8,9-tetrahydro-1-(2-methylpropyl)-1H-imidazo[4,5-c][1,5]naphthyridin-4-amine] | 0.91 | 4.59 fold |  |  |  |
| CCOCc1nc2c(N)nc3c(c2n1CC(C)(C)O)CCCC3 [IRM 9, 4-amino-2-ethoxymethyl-α,α-dimethyl-6,7,8,9-tetrahydro-1H-imidazol[4,5-c]quinoline-1-ethanol] |  |  | 0.81 | 4.67 |  |
| C[C@H](c1ccccc1)n1cnc2c(N)nc3ccccc3c21 [IRM 10, 1-[R(+)-1-phenylethyl]-1H-imidazo[4,5-c]quinolin-4-amine] |  | 2.55 fold | 1.10 |  |  |
| CCCCc1nc2c(N)nc3cccnc3c2s1 [IRM 11, 2-butyl[1,3]thiazolol[4,5-c][1,5]naphthyridin-4-amine] |  | 1.06 fold | 1.35 |  |  |
| CCCCc1nc2c(N)nc3ccccc3c2n1CCCCNS(C)(=O)=O [IRM 12, N-[4-(4-amino-2-butyl-1H-imidazo[4,5-c]quinolin-1-yl)butyl]methanesulfonamide] | 1.33 | 15.33 fold |  |  |  |
| Nc1nc2ccccc2c2c1nc1n2CCCC1 [IRM 13, 8,9,10,11-tetrahydropyrido[1′,2′:1,2]imidazol[4,5-c]quinolin-6-amine] |  | 2.39 fold | 1.20 |  |  |
| COCCc1nc2c(N)nc3ccccc3c2n1CCCCNC(=O)c1ccc(-n2cccc2)nc1 [IRM 14, N^3-{4-[4-amino-2-(2-methoxyethyl)-1H-imidazo[4,5-c]quinolin-1-yl]butyl}-6-(1H-1-pyrrolyl)nicotinamide] | 1.31 | 1.37 fold |  |  |  |
| CCCCc1nc2c(N)nc3ccccc3c2n1CCNS(C)(=O)=O [IRM 15, N-[2-(4-amino-2-butyl-1H-imidazo[4,5-c]quinolin-1-yl)ethyl]methanesulfonamide] | 1.04 | 1.88 fold |  |  |  |
| COCCc1nc2c(N)nc3ccccc3c2n1CCCCNC(=O)N1CCOCC1 [IRM 16, N-{4-[4-amino-2-(2-methoxyethyl)-1H-imidazo[4,5-c]quinolin-1-yl]butyl}morpholine-4-carboxamide] | 0.98 | 1.51 fold |  |  |  |
| CCCCc1nc2c(N)nc(C)c(C)c2n1CCCCNS(C)(=O)=O [IRM 17, N-[4-(4-amino-2-butyl-6,7-dimethyl-1H-imidazo[4,5-c]pyridin-1-yl)butyl]methanesulfonamide] | 0.99 | 2.79 fold and 2.71 fold |  |  |  |
| Peptidoglycan |  |  |  |  | inhibited by the antibodies to a greater extent |

From patent US20040014779A1, “Methods and compositions related to IRM compounds and toll-like recptor pathways” (3M Innovative Properties Company, priority 2001, published 2004)
